Results from patent publication US12357603B2, “Acyl sulfonamides for treating cancer” (Bayer Aktiengesellschaft, priority 2019, dated 2025).
Like-named read-outs stand apart in the source and are kept apart here.

Tests used:
[1] = target: Recombinant human GST-tagged Kat6b protein (431-end); assay: Kat6b activity assay (TR-FRET, acetylation of biotinylated Histone-H4-derived peptide); assay type: biochemical; conditions: 30 mins at 22° C., read-out: KAT6B activity assay IC50 [mol/l] (arithmetic mean)
ZR-75-1 cells = assay: Proliferation assay ZR-75-1 (Alamar Blue, 144 h); assay type: cell-based; conditions: arithmetic mean, read-out: ZR75-1 proliferation assay, EC50 [M] (arithmetic mean)
Procedure, shortened: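 Alamar Blue fluorescence (590 nm, 2 h reagent step) measured viability after 144 h compound exposure at 37 °C, 5% CO2. Compounds spanned 2.0×10E-5 to 2.0×10E-9 M in 9 dilutions at 0.2% DMSO, in triplicate, added 24 h after plating 3000 cells/well in RPMI 1640 plus 2.5% FBS.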

MDA-MB-436 cells = assay: Proliferation assay MDA-MB-436, negative control cell line (Alamar Blue, 144 h); assay type: cell-based; conditions: arithmetic mean
Procedure, shortened: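 Viability read as Alamar Blue fluorescence (590 nm, 2 h) after 144 h compound exposure at 37 °C, 5% CO2. Cells seeded at 3000 per well in 2.5% FBS DMEM/Ham's F12, dosed a day later over 2.0×10E-9–2.0×10E-5 M in 9 steps with 0.2% DMSO, in triplicate.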

[2] = target: Recombinant human His-tagged Kat6a protein (amino acids 194-810) (Homo sapiens (Human), UniProt Q92794); assay: Kat6a activity assay (TR-FRET, acetylation of biotinylated Histone-H4-derived peptide); assay type: biochemical; conditions: 60 mins at 22° C., read-out: KAT6A-DPF/HAT domain IC50 [mol/l] (arithmetic mean)
Procedure, shortened: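 TR-FRET read-out of H4 K8 acetylation, using anti-acetyl-K8 antibody and streptavidin acceptor, after anacardic acid stop; IC50 from four-parameter regression normalized to DMSO. Reaction: recombinant human Kat6a aa 194-810 (insect-cell derived), 220 nM H4 1-24 peptide, 600 nM acetyl-CoA, pH 8, 22 °C, 60 min, compounds 0.01-20 μM.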

[3] = system: ESR1 transcription (luciferase signal in MVLN cells); assay: Repression of ESR1 transcription, luciferase reporter in MVLN cells; assay type: cell-based; conditions: inhibition of luciferase signal in MVLN cells, arithmetic mean
Procedure, shortened: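 Luminescence from an ER-driven Vitellogenin A2 element–luciferase reporter was measured after 24 h of treatment of MVLN cells, in duplicate wells. Alamar Blue (2 h, 530/590 nm) served as a cell-density control.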

[4] = Homo sapiens, MDA-MB-436, 144 h

Recombinant human His-tagged Kat6a protein (amino acids 194-810), sequence (Q92794 194-810): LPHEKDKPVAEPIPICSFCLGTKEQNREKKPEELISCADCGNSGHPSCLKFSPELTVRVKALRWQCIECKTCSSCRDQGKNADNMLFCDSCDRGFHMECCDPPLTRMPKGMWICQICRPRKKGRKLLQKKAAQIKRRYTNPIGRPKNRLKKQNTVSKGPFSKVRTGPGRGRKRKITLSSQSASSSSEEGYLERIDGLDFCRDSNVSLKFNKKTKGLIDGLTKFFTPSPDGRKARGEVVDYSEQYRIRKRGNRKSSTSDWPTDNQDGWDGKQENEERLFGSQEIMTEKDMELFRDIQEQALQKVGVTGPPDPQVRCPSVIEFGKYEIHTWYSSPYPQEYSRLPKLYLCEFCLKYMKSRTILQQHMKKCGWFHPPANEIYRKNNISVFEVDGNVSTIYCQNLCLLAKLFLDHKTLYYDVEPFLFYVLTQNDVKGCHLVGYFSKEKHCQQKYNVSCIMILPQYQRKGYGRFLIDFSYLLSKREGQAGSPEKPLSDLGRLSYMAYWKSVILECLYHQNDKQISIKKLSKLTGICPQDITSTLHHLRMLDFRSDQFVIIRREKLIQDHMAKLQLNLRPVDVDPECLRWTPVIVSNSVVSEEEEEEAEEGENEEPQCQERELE

Compound	IC50 [1]	EC50 (ZR-75-1 cells; Homo sapiens, ZR-75-1, 144 h)	EC50 (MDA-MB-436 cells; [4])	IC50 [2]	IC50 ([3]; Homo sapiens, MVLN)	EC50 (ZR-75-1 cells)	EC50 (MDA-MB-436 cells)	IC50 [3]
COc1ccccc1S(=O)(=O)NC(=O)c1cc2ccc(N(C)C)cc2o1 [Example 114, 6-(Dimethylamino)-N-(2-methoxybenzene-1-sulfonyl)-1-benzofuran-2-carboxamide]	150 nM	1.07e-07 M	> 20000 nM	114 nM	58 nM			
CC(C)c1ccccc1S(=O)(=O)NC(=O)c1cc2ccc(N(C)C)cc2o1 [Example 77, 6-(Dimethylamino)-N-[2-(propan-2-yl)benzene-1-sulfonyl]-1-benzofuran-2-carboxamide]	546 nM	1.48e-06 M	> 20000 nM	272 nM	152 nM			
CN(C)c1ccc2cc(C(=O)NS(=O)(=O)c3c(F)cccc3OC3CCC3)oc2c1 [Example 142, N-[2-(Cyclobutyloxy)-6-fluorobenzene-1-sulfonyl]-6-(dimethylamino)-1-benzofuran-2-carboxamide]	229 nM	4.37e-07 M	> 20000 nM	139 nM	166 nM			
Cc1ccccc1-c1ccccc1S(=O)(=O)NC(=O)c1cc2ccc(N(C)C)cc2o1 [Example 17, 6-(Dimethylamino)-N-(2′-methyl[1,1′-biphenyl]-2-sulfonyl)-1-benzofuran-2-carboxamide]	64.5 nM	3.87e-08 M	> 20000 nM	72.4 nM	148 nM			
COc1cccc(C(F)(F)F)c1S(=O)(=O)NC(=O)c1cc2ccc(N(C)C)cc2o1 [Example 132, 6-(Dimethylamino)-N-[2-methoxy-6-(trifluoromethyl)benzene-1-sulfonyl]-1-benzofuran-2-carboxamide]	72.7 nM	1.05e-07 M	> 20000 nM	134 nM	80.1 nM			
CCOc1ccc(I)cc1S(=O)(=O)NC(=O)c1cc2ccc(N(C)C)cc2o1 [Example 78, 6-(Dimethylamino)-N-(2-ethoxy-5-iodobenzene-1-sulfonyl)-1-benzofuran-2-carboxamide]	87 nM	2.79e-06 M	> 20000 nM	32.7 nM	153 nM			
CN(C)c1ccc2cc(C(=O)NS(=O)(=O)c3ccccc3-c3cccc(Cl)c3)oc2c1 [Example 16, N-(3′-Chloro[1,1′-biphenyl]-2-sulfonyl)-6-(dimethylamino)-1-benzofuran-2-carboxamide]	50.5 nM	1.55e-07 M	> 20000 nM	66.3 nM	126 nM			
CCN(CC)c1ccc2cc(C(=O)NS(=O)(=O)c3ccccc3-c3ccccc3)oc2c1 [Example 38, N-([1,1′-Biphenyl]-2-sulfonyl)-6-(diethylamino)-1-benzofuran-2-carboxamide]	1890 nM	1.45e-05 M	> 20000 nM	975 nM	4990 nM			
CCN(C)c1ccc2cc(C(=O)NS(=O)(=O)c3ccccc3)oc2c1 [Example 2, N-(Benzenesulfonyl)-6-[ethyl(methyl)amino]benzofuran-2-carboxamide]	5700 nM	1.08e-05 M	> 20000 nM	4800 nM	3500 nM			
Cc1ccc(S(=O)(=O)NC(=O)c2cc3ccc(N(C)C)cc3o2)cc1 [Example 26, 6-(Dimethylamino)-N-(4-methylbenzene-1-sulfonyl)-1-benzofuran-2-carboxamide]	778 nM	3.89e-07 M	> 20000 nM	406 nM	899 nM			
CN(C)c1ccc2cc(C(=O)NS(=O)(=O)c3cc(C(C)(C)C)ccc3OCC(F)(F)F)oc2c1 [Example 181, N-[(5-(tert-butyl)-2-(2,2,2-trifluoroethoxy)phenyl)sulfonyl]-6-(dimethylamino)benzofuran-2-carboxamide]	43.5 nM	9.93e-08 M	> 20000 nM	11.8 nM	30.1 nM			
CCOc1cccc(F)c1S(=O)(=O)NC(=O)c1cc2ccc(N(C)C)cc2o1 [Example 123, 6-(Dimethylamino)-N-(2-ethoxy-6-fluorobenzene-1-sulfonyl)-1-benzofuran-2-carboxamide]	257 nM	1.19e-07 M	> 20000 nM	275 nM	179 nM			
CCc1cccc(OC)c1S(=O)(=O)NC(=O)c1cc2ccc(N(C)C)cc2o1 [Example 147, 6-(Dimethylamino)-N-(2-ethyl-6-methoxybenzene-1-sulfonyl)-1-benzofuran-2-carboxamide]	69.2 nM	7.83e-08 M	> 20000 nM	98.6 nM	86.8 nM			
CN(C)c1ccc2cc(C(=O)NS(=O)(=O)c3ccccc3OC(C)(C)C)oc2c1 [Example 68, N-(2-tert-butoxybenzene-1-sulfonyl)-6-(dimethylamino)-1-benzofuran-2-carboxamide]	84.5 nM	8.44e-08 M	> 20000 nM	69.6 nM	51 nM			
CN(C)c1ccc2cc(C(=O)NS(=O)(=O)c3ccccc3OCC(F)(F)F)oc2c1 [Example 74, 6-(Dimethylamino)-N-[2-(2,2,2-trifluoroethoxy)benzene-1-sulfonyl]-1-benzofuran-2-carboxamide]	228 nM	1.65e-07 M	> 20000 nM	128 nM	117 nM			
CCOc1cccc(-c2cccc(Cl)c2)c1S(=O)(=O)NC(=O)c1cc2ccc(N(C)C)cc2o1 [Example 25, N-(3′-Chloro-3-ethoxy[1,1′-biphenyl]-2-sulfonyl)-6-(dimethylamino)-1-benzofuran-2-carboxamide]	50.6 nM	1.5e-07 M	18000 nM	31.1 nM	139 nM			
CC(C)COc1ccccc1S(=O)(=O)NC(=O)c1cc2ccc(N(C)C)cc2o1 [Example 76, 6-(Dimethylamino)-N-[2-(2-methylpropoxy)benzene-1-sulfonyl]-1-benzofuran-2-carboxamide]	190 nM	1.95e-07 M	> 20000 nM	88.7 nM	146 nM			
Cc1ccc(S(=O)(=O)NC(=O)c2cc3ccc(N(C)C)cc3o2)c(-c2ccccc2)c1 [Example 24, 6-(Dimethylamino)-N-(5-methyl[1,1′-biphenyl]-2-sulfonyl)-1-benzofuran-2-carboxamide]	49 nM	1.33e-07 M	> 20000 nM	31 nM	181 nM			
CCOc1ccc(C)cc1S(=O)(=O)NC(=O)c1cc2ccc(N(C)C)cc2o1 [Example 67, 6-(Dimethylamino)-N-(2-ethoxy-5-methylbenzene-1-sulfonyl)-1-benzofuran-2-carboxamide]	118 nM	4.08e-08 M	> 20000 nM	42.9 nM	40.2 nM			
CN(C)c1ccc2cc(C(=O)NS(=O)(=O)c3cc(C#N)ccn3)oc2c1 [Example 29, N-(4-Cyanopyridine-2-sulfonyl)-6-(dimethylamino)-1-benzofuran-2-carboxamide]	5920 nM	1.88e-05 M	> 20000 nM	6240 nM	> 20000 nM			
CN(CC1CC1)c1ccc2cc(C(=O)NS(=O)(=O)c3ccccc3-c3ccccc3)oc2c1 [Example 40, N-([1,1′-Biphenyl]-2-sulfonyl)-6-[(cyclopropylmethyl)(methyl)amino]-1-benzofuran-2-carboxamide]	1420 nM	> 2e-05 M	> 20000 nM	1150 nM	> 20000 nM			
CN(C)c1ccc2cc(C(=O)NS(=O)(=O)c3ccccc3OCCNC(=O)OC(C)(C)C)oc2c1 [Example 117, tert-butyl [2-(2-{[6-(dimethylamino)-1-benzofuran-2-carbonyl]sulfamoyl}phenoxy)ethyl]carbamate]	342 nM	6.03e-07 M	> 20000 nM	294 nM	276 nM			
CC(C)Oc1ccccc1S(=O)(=O)NC(=O)c1cc2ccc(N(C)C)cc2o1 [Example 66, 6-(Dimethylamino)-N-{2-[(propan-2-yl)oxy]benzene-1-sulfonyl}-1-benzofuran-2-carboxamide]	59.1 nM			49.4 nM		5.47e-08 M	> 20000 nM	31 nM
CC(=O)Nc1ccc2cc(C(=O)NS(=O)(=O)c3ccccc3-c3ccccc3)oc2c1 [Example 43, 6-Acetamido-N-([1,1′-biphenyl]-2-sulfonyl)-1-benzofuran-2-carboxamide]	10300 nM	> 2e-05 M	> 20000 nM	5140 nM	> 20000 nM			
